Test results: patent US10632100B2, “Application of obacunone in preparation of drug for preventing and treating lung damage and pulmonary fibrosis” (GUANGDONG PROVINCIAL HOSPITAL OF TRADITIONAL CHINESE …, priority 2016, dated 2020)

What was measured:
[1] = system: bleomycin-induced lung injury and pulmonary fibrosis; assay: Inhibition of bleomycin-induced lung injury and pulmonary fibrosis in vivo (HE and Masson staining of lung tissue); parameters: species or system C57BL/6 mice; settings: 10 mg/kg obacunone intraperitoneally 48 hours before each bleomycin injection, lung tissue 7 days after last bleomycin, vs bleomycin group
Protocol: (§1) Eighteen C57BL/6 mice, aged 8 weeks, each weighing 18 to 22 g, were provided by the Laboratory Animal Center of Guangzhou University of Chinese Medicine (Certificate No. 44007200023897).
Bleomycin was intraperitoneally injected into 8-week old B6 mice at a dose of 2 mg/mouse, once per week, three times in total. 48 hours before each injection with bleomycin, corn oil or 10 mg/kg obacunone was intraperitoneally injected into B6 mice in advance. 7 days after the last injection with bleomycin, lung tissue was isolated, fixed, sectioned, HE-stained (see Experiment 8 for details), and Masson-stained.

[2] = system: cytokines IL-6, TGF-β, IL-17, IFN-γ and MCP-1; assay: Bleomycin-induced expression of inflammatory factors in lung tissue (qPCR); type: in vivo, C57BL/6 mice; settings: BLM+obacunone injection group vs BLM injection group, FIG. 2
Protocol: as §1
The mRNA levels of cytokines IL-6, TGF-β, IL-17, IFN-γ and MCP-1 were analyzed by qPCR. *P<0.05, **P<0.01 indicated significant differences between the BLM injection group and the normal group; ^# P<0.05, ^## P<0.01 indicated significant differences between the BLM injection group and the BLM+obacunone injection group.

[3] = system: α-smooth muscle actin (α-SMA); assay: α-SMA expression in bleomycin-induced pulmonary fibrosis (immunohistochemistry staining); type: in vivo, C57BL/6 mice; settings: after administration of obacunone, compared to the bleomycin group, FIG. 3
Excerpt: as §1
In pulmonary fibrosis TGF-β induced lung interstitial fibroblasts to transform into myofibroblasts, of which the marker is the expression of α-smooth muscle actin (α-SMA). Therefore, in this experiment the effect of obacunone on the expression of α-SMA in lung myofibroblasts was investigated to provide experimental support for the use of obacunone in treatment and prevention of pulmonary fibrosis.
Steps of immunohistochemistry staining are as follows:
1) placing and baking paraffin wax sections in an electrothermal thermostat oven at 60° C. for 30 min;
2) dewaxing the sections with xylene (8 min for each of I and II), hydrating them with decreasing concentrations of ethanol (8 min for each concentration), and washing with water;
3) performing antigen retrieval, and washing the sections with PBS (3 times×3 min);
4) adding Solution A (S-P kit) dropwise, blocking at room temperature for 10 min, and washing the sections with PBS (3 times×3 min);
5) adding Solution B (S-P kit) dropwise, blocking at room temperature for 10 min, and blotting extra liquid;
6) adding a primary antibody dropwise, placing the sections in a wet box overnight at 4° C., and washing the sections with PBS (3 times×3 min); […]

liver and kidney of mice = assay: Damage caused by obacunone to liver and kidney of mice (HE staining); type: in vivo, C57BL/6 mice; settings: 10 mg/kg obacunone, twice a week, 6 times in total; tissues 7 days after last injection; FIG. 4
Protocol: as §1
8-week aged B6 mice were injected with corn oil or 10 mg/kg obacunone, twice a week, 6 times in total. 7 days after the last injection, liver and kidney tissues were isolated, fixed, sectioned, and HE-stained (FIG. 4), as described below.
HE (Hematoxylin-eosin) staining: the paraffin wax samples were continuously sectioned with the semi-automated rotary microtome, with a thickness of 3.5 μm; for staining, the sections were baked and dried for 20 min, rinsed with xylene (2 times×10 min), with anhydrous ethanol (2 times×2 min), with 95% ethanol for 1 min, with 80% ethanol for 1 min, with 70% ethanol for 1 min, washed with water for 1 min, then stained with hematoxylin for 8 min, […], washed with water (2 times×1 min), with 0.5% HCl-ethanol for 10 sec, washed with water for 10 min, stained with eosin for 2 min, washed with water for 1 min, with 80% ethanol for 5 sec, with 85% ethanol for 5 sec, with 90% ethanol for 5 sec, with 95% ethanol for 1 min, with anhydrous ethanol (2 times×2 min), with anhydrous ethanol for 3 min, and with xylene (2 times×2 min), and then the staining was completed and the sections were directly mounted with neutral gum.

[4] = system: human colon cancer cells (SW480); settings: cited from earlier work
[5] = system: human pancreatic cancer cells (Panc-28); settings: by activating p53; cited from earlier work
arginase = settings: reciprocally increasing NO production; cited from earlier work

For `CC1(C)OC(=O)C=C[C@]2(C)[C@H]3CC[C@@]4(C)[C@H](c5ccoc5)OC(=O)[C@H]5O[C@]54[C@]3(C)C(=O)C[C@@H]12` [Obacunone], the “HE staining of lung tissue: pathological changes (alveolar shrinkage, inflammatory cell infiltration, wall thickening, bullae, interstitial proliferation)” value ([1]; FIG. 1A) was “significant improvement of the above pathological changes”, the “Masson staining of lung tissue: precipitation of stroma (collagen, fibronectin)” value ([1]; FIG. 1B) was “significant improvement of the above pathological changes” and the “mRNA levels of cytokines IL-6, TGF-β, IL-17, IFN-γ and MCP-1 in lung tissue” value [2] was “repaired these bleomycin-induced changes to a great extent”. The “expression of α-SMA in lung tissue” value [3] was “significantly reduced”, the “effect on liver and kidney (HE-stained sections)” value (liver and kidney of mice) was “did not apparently affect the liver and kidney of mice” and the “apoptosis of SW480 cells” value ([4]; by activating cytochrome C) was “induced cell apoptosis”. For the same compound, the “growth of tumor cells (SW480)” value ([4]; by activating p21 to arrest the cell cycle at phases G2/M and G1) was “suppressed growth of tumor cells”, the “apoptosis of Panc-28 tumor cells” value [5] was “induced apoptosis of tumor cells” and the activity of arginase (arginase) was “inhibiting activity of arginase”.
